Where two headings read alike, the source gives them in different places.
Key:
rats [1] = assay type: in vivo, rat; details: rats of the MAP/HR figures, 2×ED50, tail vein
rats [2] = assay type: in vivo, rat; details: for recovery time of the test animals' righting reflex: rats of the MAP/HR figures, 2×ED50, tail vein, same value in min
Experimental: The Effects of the Compounds on the Circulatory Function were Measured in Rats Using a Small Animal Implanted Physiological Signal Telemetry System
The anesthetic activity of the compounds was assessed in rats using a LORR assay and the up and down method was used to determine ED50. […] A small animal implantable physiological signal telemetry system from DSI (Data Science International, Inc.) was used to measure the changes in heart rate (HR) and blood pressure in rats during 30 min after administration. Then mean arterial pressure (MAP) and HR were used as representative indicators to determine hemodynamic stability of the compounds of the present invention in rats.
A small animal implantable physiological signal telemetry system from DSI (Data Science International, Inc.) including implants (RATHD-521, DSI, United States), receiver boards (RPC-1, DSI, United States), signal conversion devices (DEM, DSI, USA), perfusion glue (DSI, USA), fibrin membrane (DSI, USA), etc.
First, animal models were established. A left ventricular catheter, an abdominal aortic catheter and ECG wires were placed into rats. At least one week after surgery, data were recorded.
Administration procedure: rats were put into a restraint device with a 20 G indwelling catheter placed into a lateral tail vein. After administration of 0.2 mL heparin, a pre-filled extension tube was attached and taped to the tail vein to secure the extension tube. Then the rats were removed from the restraint device to a cage before placing them together on the signal receiver. […] Finally, the pharmacological effects, adverse reactions, and behavioural manifestations of the rats were observed and recorded
Data collection: After setting the data collection parameters on the software, the power of the implant was turned on to start data collection. In this experiment, data recording frequency was set to 15 s. Data collection was continuously recorded for 30 min before and after administration of the drugs in rats. After data acquisition, the test was stopped.

rats [3] = details: for Recovery time after stopping infusion: after 1 hour infusion at 2×MIR; for Adverse reactions: Tremor (incidence): continuous infusion 2×MIR; for Onset time: emulsion, continuous infusion at 2×MIR
Experimental: Pharmacological Effects of the Compounds on Continuous Infusion in Rats
Adult male Sprague-Dawley rats with body weight ranging from 250 to 300 gm were selected for continuous infusion test. […] Time to recovery of righting reflex from stopping infusion, and time to fully awake from stopping infusion were recorded.

[4] = system: secretion of corticosterone, H295R cell line; experiment: cells; assay type: cell-based; details: for EC50: Homo sapiens, NCI-H295R, read-out: EC50 (Corticosterone)
Experimental: (§1) The Effects of the Compounds on Adrenocortical Function In Vitro Test
(§2) Then secretion of the cortisol and corticosterone in the supernatant, was measured using HPLC-MS/MS method to determine whether the compounds of the present invention had adrenotoxic potential.

[5] = system: secretion of cortisol, H295R cell line; experiment: cells; assay type: cell-based; details: for EC50: Homo sapiens, NCI-H295R, read-out: EC50 (Cortisol)
Experimental: as §1, §2

[6] = H295R cell line, 0.1-10000 nM, HPLC-MS/MS, Table D3
[7] = H295R cell line, 0.1-10000 nM, HPLC-MS/MS, Table E3

| SMILES | recovery time of the test animals' righting reflex (rats [1]) | recovery time of the test animals' righting reflex (rats [2]) | EC50 [4] | EC50 [5] | also measured |
| --- | --- | --- | --- | --- | --- |
| C[C@H](c1ccccc1)n1cncc1C(=O)OCC1(CO)CC1 [Compound A7] | 110 s | 1.83 min | – | – | Recovery time after stopping infusion (rats [3]): 7 to 9 min; Adverse reactions: Tremor (incidence) (rats [3]): Tremor (4/6); Onset time (rats [3]): 2 to 3 min |
| C[C@H](c1ccccc1)n1cncc1C(=O)OCC1CC1 [Compound A15] | 193 s | 3.22 min | – | – | Recovery time after stopping infusion (rats [3]): 12 to 15 min; Adverse reactions: Tremor (incidence) (rats [3]): Tremor (5/6); Onset time (rats [3]): 2 to 3 min |
| C[C@H](c1ccccc1)n1cncc1C(=O)SCC1CCC1 [Compound A27] | 126 s | 2.10 min | – | – | – |
| COCC1(CSC(=O)c2cncn2[C@H](C)c2ccccc2)CCC1 [Compound A28] | 435 s | 7.25 min | > 1 µM | > 1 µM | Corticosterone as an indicator to determine the presence of inhibition ([4]; H295R, Table A3): 0; Cortisol as an indicator to determine the presence of inhibition ([5]; H295R, Table A3): 0 |
| C[C@H](c1ccccc1)n1cncc1C(=O)SC1CCC1 [Compound A29] | 255 s | 4.25 min | – | – | – |
| C[C@H](c1ccccc1)n1cncc1C(=O)SCC1CC(F)(F)C1 [Compound A45] | 200 s | 3.33 min | – | – | – |
| CSCC1(CSC(=O)c2cncn2[C@H](C)c2ccccc2)CCC1 [Compound A46] | – | – | > 0.1 µM | > 0.1 µM | Corticosterone as an indicator to determine the presence of inhibition ([4]; H295R, Table A3): 0; Cortisol as an indicator to determine the presence of inhibition ([5]; H295R, Table A3): 0 |
| C[C@H](c1ccccc1)n1cncc1C(=O)OC(C)(C)C1OC1(C)C (stereo partly drawn) [Compound B25] | – | – | – | > 1 µM | Corticosterone as an indicator to determine the presence of inhibition ([4]; H295R, Table B3): 0; Cortisol as an indicator to determine the presence of inhibition ([5]; H295R, Table B3): 0 |
| CC(=O)C1(OC(=O)c2cncn2[C@H](C)c2ccccc2)CCC1 [Compound C2] | 182 s | 3.03 min | – | – | – |
| CC(=O)C1(COC(=O)c2cncn2[C@H](C)c2ccccc2)CC1 [Compound C4] | – | – | > 1 µM | > 1 µM | Corticosterone as an indicator to determine the presence of inhibition ([4]; H295R, Table C3): 0; Cortisol as an indicator to determine the presence of inhibition ([5]; H295R, Table C3): 0 |
| CC(=O)C1(COC(=O)c2cncn2[C@H](C)c2ccccc2)COC1 [Compound C5] | – | – | > 1 µM | > 1 µM | Corticosterone as an indicator to determine the presence of inhibition ([4]; H295R, Table C3): 0; Cortisol as an indicator to determine the presence of inhibition ([5]; H295R, Table C3): 0 |
| CC(=O)COC(=O)c1cncn1[C@H](C)c1ccccc1 [Compound C6] | 120 s | 2.0 min | – | – | – |
| CC(=O)C(C)(C)OC(=O)c1cncn1[C@H](C)c1ccccc1 [Compound C8] | 170 s | 2.83 min | – | – | – |
| C[C@H](c1ccccc1)n1cncc1C(=O)OC[S+](C)[O-] (stereo partly drawn) [Compound C9] | – | – | > 10 µM | > 10 µM | Corticosterone as an indicator to determine the presence of inhibition ([4]; H295R, Table C3): 0; Cortisol as an indicator to determine the presence of inhibition ([5]; H295R, Table C3): 0 |
| C[C@H](c1ccccc1)n1cncc1C(=O)OCC[S+](C)[O-] (stereo partly drawn) [Compound C10] | – | – | > 10 µM | > 10 µM | Corticosterone as an indicator to determine the presence of inhibition ([4]; H295R, Table C3): 0; Cortisol as an indicator to determine the presence of inhibition ([5]; H295R, Table C3): 0 |
| CC(=O)C1(COC(=O)c2cncn2[C@H](C)c2ccccc2)CCC1 [Compound C11] | – | – | > 1 µM | > 1 µM | Corticosterone as an indicator to determine the presence of inhibition ([4]; H295R, Table C3): 0; Cortisol as an indicator to determine the presence of inhibition ([5]; H295R, Table C3): 0 |

| SMILES | recovery time of the test animals' righting reflex (rats [1]) | recovery time of the test animals' righting reflex (rats [2]) | EC50 [4] | EC50 [5] | also measured |
| --- | --- | --- | --- | --- | --- |
| C[C@H](c1ccccc1)n1cncc1C(=O)OCC1(C=O)COC1 [Compound C12] | – | – | > 1 µM | > 1 µM | Corticosterone as an indicator to determine the presence of inhibition ([4]; H295R, Table C3): 0; Cortisol as an indicator to determine the presence of inhibition ([5]; H295R, Table C3): 0 |
| CC(=O)CC(C)(C)OC(=O)c1cncn1[C@H](C)c1ccccc1 [Compound C13] | – | – | > 10 µM | > 10 µM | Corticosterone as an indicator to determine the presence of inhibition ([4]; H295R, Table C3): 0; Cortisol as an indicator to determine the presence of inhibition ([5]; H295R, Table C3): 0 |
| CC(=O)C(C)(C)SC(=O)c1cncn1[C@H](C)c1ccccc1 [Compound C22] | 93 s | 1.55 min | – | – | – |
| CC(=O)CCSC(=O)c1cncn1[C@H](C)c1ccccc1 [Compound C23] | 206 s | 3.43 min | – | – | – |
| C=C(OCC)C1(OC(=O)c2cncn2[C@H](C)c2ccccc2)COC1 [Compound D2] | 355 s | 5.92 min | > 1 µM | > 1 µM | Corticosterone as an indicator to determine the presence of inhibition [4, 6]: 0; Cortisol as an indicator to determine the presence of inhibition [5, 6]: 0 |
| C/C=C/C1(OC(=O)c2cncn2[C@H](C)c2ccccc2)CCC1 [Compound D20] | – | – | > 10 µM | > 10 µM | Corticosterone as an indicator to determine the presence of inhibition [4, 6]: 0; Cortisol as an indicator to determine the presence of inhibition [5, 6]: 0 |
| C=CC1(OC(=O)c2cncn2[C@H](C)c2ccccc2)CCCCC1 [Compound D35] | 200 s | 3.33 min | > 1 µM | > 1 µM | Corticosterone as an indicator to determine the presence of inhibition [4, 6]: 0; Cortisol as an indicator to determine the presence of inhibition [5, 6]: 0 |
| C=CCC1(OC(=O)c2cncn2[C@H](C)c2ccccc2)COC1 [Compound D41] | 355 s | 5.92 min | > 10 µM | > 10 µM | Corticosterone as an indicator to determine the presence of inhibition [4, 6]: 0; Cortisol as an indicator to determine the presence of inhibition [5, 6]: 0 |
| C[C@H](c1ccccc1)n1cnc(F)c1C(=O)OC1(C=C=S)CCCCC1 [Compound E23] | 92 s | 1.53 min | – | – | – |
| COCC1(COC(=O)c2c(Cl)ncn2[C@H](C)c2ccccc2)CCC1 [Compound E102] | 288 s | 4.80 min | > 10 µM | > 10 µM | Corticosterone as an indicator to determine the presence of inhibition [4, 7]: 0; Cortisol as an indicator to determine the presence of inhibition [5, 7]: 0 |
| C=CC#CC(C)OC(=O)c1c(Cl)ncn1[C@H](C)c1ccccc1 (stereo partly drawn) [Compound E121] | 184 s | 3.07 min | – | – | – |
| C/C(OC(=O)c1c(Cl)nc(Cl)n1[C@H](C)c1ccccc1)=C1\CCCC1=O [Compound E146] | 201 s | 3.35 min | > 10 µM | > 10 µM | Corticosterone as an indicator to determine the presence of inhibition [4, 7]: 0; Cortisol as an indicator to determine the presence of inhibition [5, 7]: 0 |
| COCC1(COC(=O)c2c(C(F)(F)F)ncn2[C@H](C)c2ccccc2)CCC1 [Compound E157] | 182 s | 3.03 min | > 10 µM | > 10 µM | Corticosterone as an indicator to determine the presence of inhibition [4, 7]: 0; Cortisol as an indicator to determine the presence of inhibition [5, 7]: 0 |
| CC(=O)C(C)(C)OC(=O)c1c(C(F)(F)F)ncn1[C@H](C)c1ccccc1 [Compound E160] | 65 s | 1.08 min | > 10 µM | > 10 µM | Corticosterone as an indicator to determine the presence of inhibition [4, 7]: 0; Cortisol as an indicator to determine the presence of inhibition [5, 7]: 0 |
| CC#CCOC(=O)c1c(C(F)(F)F)ncn1[C@H](C)c1ccccc1 [Compound E161] | 140 s | 2.33 min | > 10 µM | > 10 µM | Corticosterone as an indicator to determine the presence of inhibition [4, 7]: 0; Cortisol as an indicator to determine the presence of inhibition [5, 7]: 0 |
| CC(C)c1cccc(C(C)C)c1O [propofol, reference compound] | 645 s | 10.75 min | – | – | effect on the circulatory function (MAP, HR) (rats [2]; rats, 2×ED50, 30 min after administration): significant inhibition of the circulatory function |
